For 24 compounds, IC50 results are on record in ChEMBL document CHEMBL5046249, “Synthesis, biological evaluation and cellular localization study of fluorescent derivatives of Jiyuan Oridonin A” (Eur J Med Chem, 2022).

The structures appear in SMILES notation. Bounds are passed on as bounds.

Holding throughout (assay type): functional, cell-based
For one assay, the system named is PC-3. Description: Antiproliferative activity against human PC-3 cells assessed as inhibition of cell growth measured after 72 hrs by SRB assay. The note with it: PC-3, 72 h. (The SRB assay estimates cell density from bound dye.)
A further assay concerns SW1990. The assay is described as follows: Antiproliferative activity against human SW1990 cells assessed as inhibition of cell growth measured after 72 hrs by SRB assay. The note with it: SW1990, 72 h.
The next assay deals with MGC-803. The assay is described as follows: Antiproliferative activity against human MGC-803 cells assessed as inhibition of cell growth measured after 72 hrs by SRB assay. The note with it: MGC-803, 72 h.
A further assay concerns HGC-27. The assay is described as follows: Antiproliferative activity against human HGC-27 cells assessed as inhibition of cell growth measured after 72 hrs by SRB assay. The following applies: HGC-27, 72 h.
Another assay has as its system TE-1. The assay is described as follows: Antiproliferative activity against human TE-1 cells assessed as inhibition of cell growth measured after 72 hrs by SRB assay. The note with it: TE-1, 72 h.

The IC50 is the concentration that gives 50% inhibition. As for `C=C1C(=O)[C@]23[C@H](O)[C@H]1C[C@H](O)[C@H]2[C@]12CCCC(C)(C)[C@H]1C[C@H]3O[C@H]2OCCc1cn(CCOCCOCCN2C(=O)c3cccc4c(N5CCCCC5)ccc(c34)C2=O)nn1`, the IC50 was determined as 970 nM in the assay on PC-3; 2090 nM in the assay with SW1990; 3310 nM with MGC-803; 3540 nM in the assay with HGC-27; 1830 nM with TE-1.

As for `C=C1C(=O)[C@]23[C@H](O)[C@H]1C[C@H](O)[C@H]2[C@]12CCCC(C)(C)[C@H]1C[C@H]3O[C@H]2OCCCCCCc1cn(CCCCN2C(=O)c3cccc4c(N5CCCCC5)ccc(c34)C2=O)nn1`, the IC50 stood at 6160 nM in the assay on PC-3; 4520 nM with SW1990; 4590 nM in the assay on MGC-803; 2290 nM in the assay with HGC-27; 8820 nM in the assay on TE-1.

As for `C=C1C(=O)[C@]23[C@H](O)[C@H]1C[C@H](O)[C@H]2[C@]12CCCC(C)(C)[C@H]1C[C@H]3O[C@H]2OCCCCc1cn(CCN2C(=O)c3cccc4c(N5CCCCC5)ccc(c34)C2=O)nn1`, the IC50 in the assay with PC-3 is 1440 nM; with SW1990, 1370 nM; in the assay on MGC-803 it was 1210 nM; in the assay on HGC-27, 6230 nM; with TE-1, 2250 nM.

For the compound `C=C1C(=O)[C@]23[C@H](O)[C@H]1C[C@H](O)[C@H]2[C@]12CCCC(C)(C)[C@H]1C[C@H]3O[C@H]2OCCCc1cn(CCN2C(=O)c3cccc4c(N5CCCCC5)ccc(c34)C2=O)nn1`, the IC50 with PC-3 amounted to 470 nM; in the assay with SW1990, 1360 nM; with MGC-803, 1230 nM; in the assay on HGC-27, 2970 nM; in the assay on TE-1, 4800 nM.

Turning to `C=C1C(=O)[C@]23[C@H](O)[C@H]1C[C@H](O)[C@H]2[C@]12CCCC(C)(C)[C@H]1C[C@H]3O[C@H]2OCCCCCCc1cn(CCCN2C(=O)c3cccc4c(N5CCCCC5)ccc(c34)C2=O)nn1`, the IC50 in the assay with PC-3 was found to be 2380 nM; with SW1990, 3190 nM; in the assay on MGC-803, 6060 nM; in the assay with HGC-27, 2480 nM; in the assay on TE-1, 3670 nM.

Regarding `C#CCCCO[C@@H]1O[C@@H]2C[C@@H]3C(C)(C)CCC[C@]13[C@@H]1[C@@H](O)C[C@H]3C(=C)C(=O)[C@@]21[C@@H]3O`, the IC50 in the assay on PC-3 turned out to be 5370 nM; in the assay with SW1990 it was 3220 nM; with MGC-803 it was 2460 nM; with HGC-27, 2680 nM; in the assay on TE-1 it was 4230 nM.

In the case of `C=C1C(=O)[C@]23[C@H](O)[C@H]1C[C@H](O)[C@H]2[C@]12CCCC(C)(C)[C@H]1C[C@H]3O[C@H]2OCCCCCc1cn(CCCCN2C(=O)c3cccc4c(N5CCCCC5)ccc(c34)C2=O)nn1`, the IC50 in the assay with PC-3 amounted to 1340 nM; in the assay with SW1990, 4650 nM; with MGC-803, 2720 nM; in the assay with HGC-27 it was 3010 nM; with TE-1, 5130 nM.

In the case of `C=C1C(=O)[C@]23[C@H](O)[C@H]1C[C@H](O)[C@H]2[C@]12CCCC(C)(C)[C@H]1C[C@H]3O[C@H]2OCCCCCCc1cn(CCOCCN2C(=O)c3cccc4c(N5CCCCC5)ccc(c34)C2=O)nn1`, the IC50 was found to be 1490 nM in the assay on PC-3; 1780 nM in the assay with SW1990; 1930 nM with MGC-803; 1170 nM in the assay on HGC-27; 1530 nM in the assay with TE-1.

For the compound `C=C1C(=O)[C@]23[C@H](O)[C@H]1C[C@H](O)[C@H]2[C@]12CCCC(C)(C)[C@H]1C[C@H]3O[C@H]2OCCCc1cn(CCOCCN2C(=O)c3cccc4c(N5CCCCC5)ccc(c34)C2=O)nn1`, the IC50 turned out to be 1410 nM in the assay on PC-3; 2390 nM with SW1990; 3830 nM in the assay on MGC-803; 2160 nM in the assay on HGC-27; 2260 nM with TE-1.

For `C=C1C(=O)[C@]23[C@H](O)[C@H]1C[C@H](O)[C@H]2[C@]12CCCC(C)(C)[C@H]1C[C@H]3O[C@H]2OCCCc1cn(CCCCCN2C(=O)c3cccc4c(N5CCCCC5)ccc(c34)C2=O)nn1`, the IC50 came to 1670 nM with PC-3; 1380 nM in the assay on SW1990; 1530 nM in the assay on MGC-803; 3310 nM with HGC-27; 3940 nM in the assay on TE-1.

For the compound `C=C1C(=O)[C@]23[C@H](O)[C@H]1C[C@H](O)[C@H]2[C@]12CCCC(C)(C)[C@H]1C[C@H]3O[C@H]2OCCCCCCc1cn(CCOCCOCCOCCN2C(=O)c3cccc4c(N5CCCCC5)ccc(c34)C2=O)nn1`, the IC50 stood at 1270 nM with PC-3; 2640 nM with SW1990; 3870 nM with MGC-803; 1440 nM in the assay with HGC-27; 3080 nM in the assay on TE-1.

In the case of `C#CCCCCO[C@@H]1O[C@@H]2C[C@@H]3C(C)(C)CCC[C@]13[C@@H]1[C@@H](O)C[C@H]3C(=C)C(=O)[C@@]21[C@@H]3O`, the IC50 with PC-3 is 4320 nM; in the assay on SW1990, 3340 nM; in the assay with MGC-803 it was 2550 nM; in the assay on HGC-27, 3000 nM; in the assay with TE-1 it was 5670 nM.

As for `C=C1C(=O)[C@]23[C@H](O)[C@H]1C[C@H](O)[C@H]2[C@]12CCCC(C)(C)[C@H]1C[C@H]3O[C@H]2OCCCCCc1cn(CCCCCN2C(=O)c3cccc4c(N5CCCCC5)ccc(c34)C2=O)nn1`, the IC50 in the assay with PC-3 was 780 nM; with SW1990 it was 2790 nM; with MGC-803 it was 2440 nM; in the assay with HGC-27, 1670 nM; in the assay with TE-1 it was 4670 nM.

`C=C1C(=O)[C@]23[C@H](O)[C@H]1C[C@H](O)[C@H]2[C@]12CCCC(C)(C)[C@H]1C[C@H]3O[C@H]2OCCCCCc1cn(CCN2C(=O)c3cccc4c(N5CCCCC5)ccc(c34)C2=O)nn1`: the IC50 in the assay on PC-3 was determined as 2470 nM; with SW1990, 4630 nM; with MGC-803 it was 2720 nM; in the assay with HGC-27, 4410 nM; in the assay with TE-1, 5360 nM.

On to `C=C1C(=O)[C@]23[C@H](O)[C@H]1C[C@H](O)[C@H]2[C@]12CCCC(C)(C)[C@H]1C[C@H]3O[C@H]2OCCCCc1cn(CCCCN2C(=O)c3cccc4c(N5CCCCC5)ccc(c34)C2=O)nn1`, for which the IC50 in the assay on PC-3 was determined as 910 nM; in the assay with SW1990, 860 nM; with MGC-803, 1690 nM; in the assay with HGC-27, 1820 nM; with TE-1, 3890 nM.

For the compound `C=C1C(=O)[C@]23[C@H](O)[C@H]1C[C@H](O)[C@H]2[C@]12CCCC(C)(C)[C@H]1C[C@H]3O[C@H]2OCCCCCCc1cn(CCCCCCN2C(=O)c3cccc4c(N5CCCCC5)ccc(c34)C2=O)nn1`, the half-maximal inhibitory concentration (IC50) was 3000 nM in the assay on PC-3; 4880 nM in the assay with SW1990; 3650 nM in the assay on MGC-803; 5880 nM in the assay on HGC-27; 4050 nM in the assay with TE-1.

`[N-]=[N+]=NCCN1C(=O)c2cccc3c(N4CCCCC4)ccc(c23)C1=O`: the IC50 in the assay on PC-3, in the assay with SW1990, in the assay with MGC-803, with HGC-27 and in the assay with TE-1 was over 32000 nM each time.

Take `C=C1C(=O)[C@]23[C@H](O)[C@H]1C[C@H](O)[C@H]2[C@]12CCCC(C)(C)[C@H]1C[C@H]3O[C@H]2OCCc1cn(CCCN2C(=O)c3cccc4c(N5CCCCC5)ccc(c34)C2=O)nn1`: the IC50 in the assay on PC-3 came to 800 nM; in the assay with SW1990, 970 nM; in the assay with MGC-803, 1970 nM; in the assay with HGC-27 it was 2290 nM; with TE-1 it was 3040 nM.

In the case of `C=C1C(=O)[C@]23[C@H](O)[C@H]1C[C@H](O)[C@H]2[C@]12CCCC(C)(C)[C@H]1C[C@H]3O[C@H]2OCCCc1cn(CCCCN2C(=O)c3cccc4c(N5CCCCC5)ccc(c34)C2=O)nn1`, the IC50 with PC-3 is 1240 nM; in the assay on SW1990, 870 nM; in the assay with MGC-803 it was 1270 nM; in the assay on HGC-27, 2240 nM; in the assay with TE-1, 2080 nM.

For `C=C1C(=O)[C@]23[C@H](O)[C@H]1C[C@H](O)[C@H]2[C@]12CCCC(C)(C)[C@H]1C[C@H]3O[C@H]2OCCCCCc1cn(CCOCCN2C(=O)c3cccc4c(N5CCCCC5)ccc(c34)C2=O)nn1`, the IC50 in the assay on PC-3 is 870 nM; in the assay on SW1990, 3360 nM; in the assay with MGC-803, 2780 nM; in the assay on HGC-27, 1640 nM; in the assay on TE-1 it was 2370 nM.

Turning to `[N-]=[N+]=NCCCCN1C(=O)c2cccc3c(N4CCCCC4)ccc(c23)C1=O`, the IC50 in the assay on PC-3, in the assay with SW1990, in the assay with MGC-803, in the assay on HGC-27 and with TE-1 was over 32000 nM each time.

Take `C=C1C(=O)[C@]23[C@H](O)[C@H]1C[C@H](O)[C@H]2[C@]12CCCC(C)(C)[C@H]1C[C@H]3O[C@H]2OCCCCCCc1cn(CCOCCOCCN2C(=O)c3cccc4c(N5CCCCC5)ccc(c34)C2=O)nn1`: the IC50 is 970 nM in the assay with PC-3; 2820 nM with SW1990; 3010 nM in the assay on MGC-803; 1880 nM with HGC-27; 1530 nM in the assay on TE-1.

Regarding `[N-]=[N+]=NCCOCCOCCN1C(=O)c2cccc3c(N4CCCCC4)ccc(c23)C1=O`, the IC50 with PC-3, in the assay with SW1990, with MGC-803, in the assay with HGC-27 and with TE-1 was over 32000 nM each time.

Take `C=C1C(=O)[C@]23[C@H](O)[C@H]1C[C@H](O)[C@H]2[C@]12CCCC(C)(C)[C@H]1C[C@H]3O[C@H]2OCCCCc1cn(CCCCCN2C(=O)c3cccc4c(N5CCCCC5)ccc(c34)C2=O)nn1`: the IC50 in the assay on PC-3 is 1270 nM; in the assay with SW1990 it was 2690 nM; with MGC-803, 3070 nM; in the assay with HGC-27, 1950 nM; in the assay on TE-1 it was 6380 nM.
